From patent EP0562497A1, “1 alpha-hydroxy vitamins D7 and D4' processes for the preparation thereof and pharmaceutical compositions” (NISSHIN FLOUR MILLING CO., LTD., priority 1992, dated 1993)

System: Female Wistar rats
Experiment: Activity test in ovariectomized, right sciatic nerve amputated rats: femur bone density and serum calcium after 6 weeks of oral administration
Format: in vivo
Settings: for Serum calcium concentration / Bone density: 5 days per week for 6 weeks; for Serum calcium concentration: blood drawn the day after final administration; for Bone density: right femur, ash weight/volume, ovariectomy and sciatic nerve amputation; for increase in bone density / increase in serum calcium concentration: in words, compared with known 1α-hydroxy vitamin D₃, summary of Table 1
Text: Seventy two rats were subjected to bilateral ovariectomy and right sciatic nerve amputation. Rats were divided into 9 groups of eight animals each. Another group of eight rats was subjected to sham operation. Over a period of 6 weeks after operation, each group was orally administered either 1α-hdyroxy vitamin D₃, 1α-hydroxy vitamin D₇ or 1α-hydroxy vitamin D₄ dissolved in 0.5% ethanol/porpyleneglycol (vehicle) at the frequency of 5 days per week. The sham operated group and control group were orally administered the vehicle alone. The next day after final administration, rats were killed, blood was drawn from abdominal cave and right femur was extracted. The bone volume of femur was measured in accordance with Archimedes' principle. After heat treatment at 700°C for 24 hrs, the weight of bone ash was measured. From these measured values, the bone density (ash weight/volume) of each femur was calculated. Serum calcium concentration was determined according to usual method.

C=C1/C(=C\C=C2/CCC[C@]3(C)[C@@H]([C@H](C)CCCC(C)C)CC[C@@H]23)C[C@@H](O)C[C@@H]1O [1α-OH-D3, 1α-hydroxy vitamin D₃, reference compound]
Serum calcium concentration (0.02 µg/kg/day oral): 10.8 ± 0.1 mg/dL | Bone density (0.02 µg/kg/day oral): 0.556±0.005 mg/mm^3 | Serum calcium concentration (0.1 µg/kg/day oral): 11.0 ± 0.1 mg/dL | Bone density (0.1 µg/kg/day oral): 0.545±0.007 mg/mm^3 | Serum calcium concentration (0.5 µg/kg/day oral): 12.4 ± 0.2 mg/dL | Bone density (0.5 µg/kg/day oral): 0.560±0.006 mg/mm^3

C=C1/C(=C\C=C2/CCC[C@]3(C)[C@@H]([C@H](C)CC[C@H](C)C(C)C)CC[C@@H]23)C[C@@H](O)C[C@@H]1O [1α-OH-D4, 1α-hydroxy vitamin D₄]
Serum calcium concentration (0.5 µg/kg/day oral): 10.5 ± 0.2 mg/dL | Bone density (0.5 µg/kg/day oral): 0.576±0.006 mg/mm^3 | Serum calcium concentration (2.5 µg/kg/day oral): 11.0 ± 0.4 mg/dL | Bone density (2.5 µg/kg/day oral): 0.583 ± 0.003 mg/mm^3 | increase in bone density: much greater increase in bone density | increase in serum calcium concentration: lesser increase in serum calcium concentration

C=C1/C(=C\C=C2/CCC[C@]3(C)[C@@H]([C@H](C)CC[C@@H](C)C(C)C)CC[C@@H]23)C[C@@H](O)C[C@@H]1O [1α-OH-D7, 1α-hydroxy vitamin D₇]
Serum calcium concentration (0.5 µg/kg/day oral): 10.5 ± 0.1 mg/dL | Bone density (0.5 µg/kg/day oral): 0.581±0.004 mg/mm^3 | Serum calcium concentration (2.5 µg/kg/day oral): 10.7 ± 0.3 mg/dL | Bone density (2.5 µg/kg/day oral): 0.585±0.007 mg/mm^3 | Serum calcium concentration (12.5 µg/kg/day oral): 10.9 ± 0.5 mg/dL | Bone density (12.5 µg/kg/day oral): 0.589±0.004 mg/mm^3 | increase in bone density: much greater increase in bone density | increase in serum calcium concentration: lesser increase in serum calcium concentration
